Patent publication EP0043274A2, “Antithrombotic treatment” (priority 1980, dated 1982)
Read-outs that look alike come from different tables or passages of the source.

Key:
[1] = test system: thrombus formation in the jugular vein; assay: I 125 fibrinogen technique, damaged jugular vein (venous thrombosis), continuous infusion; assay type: in vivo, rabbits; details: for thrombus formation in the jugular vein (conclusion in words): continuous infusion for five hours
Protocol: The anti venous thrombotic effect of sodium bisulfite is evaluated in rabbits by using I ^125 fibrinogen technique as described in an article in "Archives of Surgery" Vol. 104, pg. 152 (1972).
The rabbit was continuously infused with aqueous sodium bisulfite solution at the rate of […]. (5.154 gram per hour) (animal body weight 2.3 kg) for a time of five hours. After 5 hours, the animal was sacrificed and the radioactive fibrinogen accumulated in the damaged jugular vein was determined. The radioactivity on the contra-lateral (undamaged) jugular vein was also determined to serve as a control. Concurrently, another rabbit had experienced the same procedure but received only a standard sodium chloride solution as a control. The rabbit from the normal saline solution has seven times as much radioactivity as his counterpart infused with sodium bisulfite.
Two jugular veins on a normal, healthy rabbit are exposed and one of the veins is systematically damaged by clamping in two longitudinally spaced places. The rabbit is then continuously infused with aqueous sodium formaldehyde bisulfite at the rate of […] (5.154 gram per hour) (animal body weight 2.3 kg). The rabbit is then injected with fibrinogen labeled with I^125. After 5 hours, the damaged jugular vein is evaluated for radioacive count with a Geiger counter.
This iodine 125 evaluation technique is described by Kakkar in Archieves of Surgery, Vol. 104, pg. 152 (1972) and by Kelton, J.G. et al, Journal of Clinical Investigation, Vol. 62, pgs. 892-895, (1978). […] Other rabbits, similarly evaluated, died, apparently because of overdose by the infustion technique.

human plasma [2] = assay type: biochemical; details: for PT (effect in words): in vitro, 0.5 mg/ml; for PT REPLICATIONS 1 / PT REPLICATIONS 2 / PT REPLICATIONS 3: amine bisulfites; for PT REPLICATIONS 1 / PT REPLICATIONS 2: control plasma 12.8 / 13.1; for PT REPLICATIONS 3: control plasma 13.1 / 13.0
rat plasma = assay: Blood coagulation tests (PT, PTT, coagulation factors) in vitro; assay type: biochemical; details: rat plasma in vitro, 0.5 mg/ml
Description: (§1) The alkali metalbisulfites, sodium and potassium, and ammonium bisulfite are found to prolong PT and PTT in a dose-related fashion.

rabbit plasma = assay: as above; assay type: biochemical; details: rabbit plasma in vitro, 0.5 mg/ml
Description: as §1
The Solution I is found to prolong PT and PTT in a dose related fashion. […] The agent is active in inhibiting various coagulation factors, including factors VII, IX, X, XI, and XII.

human plasma [3] = assay type: biochemical; details: for PTT (effect in words): in vitro; for PTT REPLICATIONS 1 / PTT REPLICATIONS 3: amine bisulfites; for PTT REPLICATIONS 1: control plasma 37.5 / 38.2; for PTT REPLICATIONS 3: control plasma 37.8 / 39.2
FIBRINOGEN [4] = target: T1, FIBRINOGEN (Homo sapiens, UniProt P02671+P02675+P02679); assay: Coagulation factor assay (Biggs): fibrinogen; assay type: biochemical; details: mean of two experiments; control 205
T1 construct: from tissue; host or cells: human plasma
T1 sequence (P02671 20-629 limits assumed): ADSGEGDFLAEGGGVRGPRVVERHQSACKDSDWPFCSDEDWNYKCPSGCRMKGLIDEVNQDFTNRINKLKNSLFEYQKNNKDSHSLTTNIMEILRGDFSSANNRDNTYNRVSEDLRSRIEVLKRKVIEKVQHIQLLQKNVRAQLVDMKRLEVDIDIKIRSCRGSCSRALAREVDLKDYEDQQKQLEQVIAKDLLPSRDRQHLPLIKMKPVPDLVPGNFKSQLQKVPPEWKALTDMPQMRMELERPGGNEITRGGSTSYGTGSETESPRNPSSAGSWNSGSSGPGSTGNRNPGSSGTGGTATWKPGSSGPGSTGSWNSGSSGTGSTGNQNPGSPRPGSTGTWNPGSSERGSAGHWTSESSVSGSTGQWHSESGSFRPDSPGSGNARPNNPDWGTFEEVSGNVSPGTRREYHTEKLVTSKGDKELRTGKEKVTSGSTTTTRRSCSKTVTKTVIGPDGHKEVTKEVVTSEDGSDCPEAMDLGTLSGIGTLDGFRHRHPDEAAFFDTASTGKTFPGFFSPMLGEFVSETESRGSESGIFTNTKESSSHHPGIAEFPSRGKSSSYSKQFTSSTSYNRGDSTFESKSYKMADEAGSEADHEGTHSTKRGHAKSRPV
T1 sequence (P02675 31-491): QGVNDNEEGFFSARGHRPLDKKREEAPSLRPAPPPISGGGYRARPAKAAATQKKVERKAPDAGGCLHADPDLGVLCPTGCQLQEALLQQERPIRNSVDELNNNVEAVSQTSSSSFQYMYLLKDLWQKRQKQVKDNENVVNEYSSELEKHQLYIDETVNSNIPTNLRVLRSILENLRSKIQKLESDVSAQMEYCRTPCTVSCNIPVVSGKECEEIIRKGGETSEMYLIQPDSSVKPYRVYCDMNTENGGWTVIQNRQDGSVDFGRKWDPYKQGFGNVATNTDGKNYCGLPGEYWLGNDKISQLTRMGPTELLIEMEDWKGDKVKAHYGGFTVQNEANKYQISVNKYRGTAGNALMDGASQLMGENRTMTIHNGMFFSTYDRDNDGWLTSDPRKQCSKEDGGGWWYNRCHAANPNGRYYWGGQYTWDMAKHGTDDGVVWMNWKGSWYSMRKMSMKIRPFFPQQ
T1 sequence (P02679 27-453): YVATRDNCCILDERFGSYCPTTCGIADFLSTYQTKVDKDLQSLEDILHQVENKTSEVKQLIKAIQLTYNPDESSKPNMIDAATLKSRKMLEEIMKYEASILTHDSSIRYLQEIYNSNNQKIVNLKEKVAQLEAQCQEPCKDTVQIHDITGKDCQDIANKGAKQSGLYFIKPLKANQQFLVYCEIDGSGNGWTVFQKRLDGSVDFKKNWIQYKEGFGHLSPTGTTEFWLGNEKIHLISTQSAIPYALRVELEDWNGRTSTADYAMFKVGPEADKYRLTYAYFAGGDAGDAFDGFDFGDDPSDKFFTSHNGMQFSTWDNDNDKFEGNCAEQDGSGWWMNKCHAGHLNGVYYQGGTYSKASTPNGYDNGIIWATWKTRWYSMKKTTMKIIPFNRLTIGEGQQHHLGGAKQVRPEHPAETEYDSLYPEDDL
Protocol: (§2) The effect of U.S.P. grade sodium bisulfite on blood coagulation factors is evaluated by standard procedures (Biggs) and the results are shown in Table III below.
(§3) References for PT, PTT, and assays of all the coagulation factors can be found in a standard textbook, entitled "Human Blood Coagulation, Haemostasis and Thrombosis", edited by Rosemary Biggs, published by Blackwell Scientific Publications, Oxford, England (2nd edition), pages 670-705, 1976.

FIBRINOGEN [5] = target: T1, FIBRINOGEN; assay: Coagulation factor assay (Biggs): fibrinogen; assay type: biochemical; details: mean of 2 experiments; control 205
F IX = target: T2, F IX (Homo sapiens, UniProt P00740); assay: Coagulation factor assay (Biggs): Factor IX; assay type: biochemical; details: single experiment; control 50
T2 construct: from tissue; host or cells: human plasma
Protocol: as §2, §3

platelet rich plasma = assay: Platelet aggregation in platelet rich plasma, ADP stimulus (Example 25); assay type: cell-based; details: plasma first treated with the compound
Description: Plasma was centrifuged at 1000 r.p.m. (200 g) to prepare a platelet rich plasma. Using adosine diphosphate (ADP) as a stimulous, rapid aggregation of platelets in the plasma was efected. On the other hand, when such plasma is first treatd with (a) tetramethyl ammonium sulfite, (b) tetramethyl ammonium bisulfite, and then (c) tetrabutyl

T2 sequence (P00740 47-461): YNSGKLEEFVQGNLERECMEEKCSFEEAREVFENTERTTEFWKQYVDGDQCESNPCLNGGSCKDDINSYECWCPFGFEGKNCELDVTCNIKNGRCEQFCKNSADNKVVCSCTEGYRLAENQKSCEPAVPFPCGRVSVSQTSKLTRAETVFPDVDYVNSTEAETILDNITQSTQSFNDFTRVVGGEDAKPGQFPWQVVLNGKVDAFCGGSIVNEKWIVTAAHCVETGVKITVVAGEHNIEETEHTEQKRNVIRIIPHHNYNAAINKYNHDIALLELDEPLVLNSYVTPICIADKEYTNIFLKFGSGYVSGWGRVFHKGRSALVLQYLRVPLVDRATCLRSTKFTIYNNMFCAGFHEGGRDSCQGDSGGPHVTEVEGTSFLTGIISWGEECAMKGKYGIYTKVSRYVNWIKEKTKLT

## CCCCN(CCCC)CCCC.O=S(O)O [tri-n-butyl amine bisulfite]
[1]
  thrombus formation in the jugular vein (conclusion in words): definite positive antithrombotic effect

## ammonium bisulfite
Human plasma [2]
  PT (effect in words): significantly prolong
Rat plasma
  PT and PTT (effect in words): significantly prolong
Rabbit plasma
  PT and PTT (effect in words): significantly prolong
Human plasma [3]; 0.5 mg/ml
  PTT (effect in words): significantly prolong

## OCCNCCO [DIETHANOL AMINE]
Human plasma [2]
  PT REPLICATIONS 1: 20.6
  PT REPLICATIONS 2: 19.8
  PT REPLICATIONS 3: 19.7
[1]
  thrombus formation in the jugular vein (conclusion in words): definite positive antithrombotic effect
Human plasma [3]
  PTT REPLICATIONS 2: 58.0
  PTT REPLICATIONS 1: 62.6
  PTT REPLICATIONS 3: 60.6

## CCN(CC)CC.O=S(O)O [TRIETHYL AMINE SULFITE, triethyl amine sulfite]
FIBRINOGEN [4]
  Fibrinogen (%): 170%
Human plasma [2]
  MEAN LSD (PT): 16.9 ± 1.1 s
  PT(Sec) […]. 1: 17.0 s
  PT(Sec) […]. 2: 18.5 s
  PT(Sec) […]. 3: 15.4 s
  PT(Sec) […]. 4: 16.6 s
  PT(Sec) […].5: 16.8 s
[1]
  thrombus formation in the jugular vein (conclusion in words): definite positive antithrombotic effect
Human plasma [3]
  MEAN LSD (PTT): 60.6 ± 4.1 s
  PTT(Sec) […]. 1: 59.2 s
  PTT(Sec) […]. 2: 65.1 s
  PTT(Sec) […]. 3: 54.9 s
  PTT(Sec) […]. 4: 59.0 s
  PTT(Sec) […].5: 64.0 s

## potassium bisulfite
Human plasma [2]
  PT (effect in words): significantly prolong
Rat plasma
  PT and PTT (effect in words): significantly prolong
Rabbit plasma
  PT and PTT (effect in words): significantly prolong
Human plasma [3]; 0.5 mg/ml
  PTT (effect in words): significantly prolong

## C[N+](C)(C)C [Tetramethyl-ammonium sulfite]
FIBRINOGEN [5]
  Fibrinogen (%): 175%
F IX
  Factor IX (%): 20%
Platelet rich plasma
  platelet aggregation, adosine diphosphate (ADP) as a stimulous: inhibited

## CCCC[N+](CCCC)(CCCC)CCCC [tetrabutyl ammonium bisulfite]
[1]; continuous infusion .001 mg/kg min (5.154 gram per hour) for five hours
  radioactivity (I 125 fibrinogen) in damaged jugular vein of saline control rabbit relative to treated rabbit: approximately 7 times

## Sodium thiosulfate [SI6, reference compound]
Human plasma [2]
  PT: 13.5 s
Human plasma [3]
  PTT: 46.2 s

## O=C(O)CC(S)C(=O)O (centres unmarked) [Example A2, Mercaptosuccinic acid, reference compound]
Human plasma [2]
  PT: 14.7 s
Human plasma [2]; coded agents 0.5mg/ml, […], control 12.92
  PT: 14.60 s
Human plasma [3]; 0.5 mg/ml, two different days, control 42.6 / 42.10
  PTT: 52.6 s
Human plasma [3]; coded agents 0.5mg/ml, […], control 43.38
  PTT: 48.70 s

## CCCCCCCCN.O=S(O)O [n-octyl amine bisulfite]
[1]
  thrombus formation in the jugular vein (conclusion in words): definite positive antithrombotic effect

## CNC1CCCCC1 [N-METHYL CYCLOHEXYL AMINE]
Human plasma [2]
  PT REPLICATIONS 1: 20.5
  PT REPLICATIONS 2: 20.3
  PT REPLICATIONS 3: 20.4
Human plasma [3]
  PTT REPLICATIONS 2: 61.8
  PTT REPLICATIONS 1: 60.6
  PTT REPLICATIONS 3: 61.6
